Reference: US20140234502A1, “Treatment of Produce” (Rohm and Haas Company, priority 2009, published 2014)

How the values were obtained:
Format in all cases: in vivo, pear
[1] = system: Conference Pears; test: Color rating of Conference pears; details: ambient 5-8 days; for Italy color / SW France color: scale of 0 (green) to 5 (yellow)
Description: (§1) Pears (Conference, William's/Bartlett, or Packam's) were harvested at maturity for long storage. Number of fruits and replicates were selected according to the size of the chamber in which to apply 1-MCP and according to the statistical design. Airtight containers in the range of 1 cubic meter were used for the application of both 1-MCP and ethylene. 1-MCP was released from SmartFresh™ powder that contained 0.14% 1-MCP by weight (obtained from AgroFresh, Inc.). The amount of that SmartFresh™ powder was chosen to yield the target atmospheric concentration of 1-MCP in the chosen container. For example, the 1-MCP released from 1000 mg of that SmartFresh™ powder in 1 cubic meter yielded 1-MCP concentration in the atmosphere of 625 ppb.
(§2) The chosen amount of SmartFresh™ powder was dissolved in water into a tight flask and shaken until all the powder was dissolved. The flask was then put it into the airtight container and opened, to release the 1-MCP. At the same time of the opening of the 1-MCP flask, ethylene was injected with a syringe into the airtight container. Ethylene was taken from a compressed tank at known concentration: either taken directly or released into a flask. In the latter case the concentration was measured by gas-chromatograph to determine the quantity of volume to inject into the airtight container to get the target concentration.
(§3) The exposure to atmosphere containing either 1-MCP alone or 1-MCP and ethylene was done on cold pears (already cooled down to non-ambient storage temperature) within a maximum of 7 days from harvest and lasted 24 hours. At the end of the application, the airtight container was vented for 15 minutes and the fruits were put into RA or CA storage. RA storage was at temperature of −1° C. to 1° C. and at relative humidity of 80% to 98%. CA storage had the same temperature and humidity of RA storage, had oxygen level of 1% to 3%, by volume based on the volume of the atmosphere and had carbon dioxide level of 0.5% to 2%, by volume based on the volume of the atmosphere.
Pears were tested for firmness, as described above, and were rated for color on a scale of 0 (green) to 5 (yellow).

[2] = system: Conference Pears; test: Inspection of Conference pears for rot, bruising and internal browning
Description: as §1, §2, §3
After RA storage, pears were exposed to ambient for the number of days shown below and then inspected for rot, bruising, and internal browning (“I.B.”). Results shown are the percentage of pears having the disorder.
Pears from SW France were examined as in Example 7, and the percent disordered fruit was as follows: […]

[3] = system: Conference Pears; test: Examination of Conference pears for scald; details: Example 9, CA 6 months; for percent with scald: Italy
Description: as §1, §2, §3
Pears from Italy (the same pears whose firmness is reported herein above in Example 5) were examined for scald after exposure to ambient conditions for the number of days shown below.

[4] = system: Pears (Conference, William's/Bartlett, or Packam's); test: Firmness of pears, summary over all Examples; details: each of the Examples; samples exposed to 1-MCP and not to ethylene
Description: as §1
The chosen amount of SmartFresh™ powder was dissolved in water into a tight flask and shaken until all the powder was dissolved. The flask was then put it into the airtight container and opened, to release the 1-MCP. […] In the latter case the concentration was measured by gas-chromatograph to determine the quantity of volume to inject into the airtight container to get the target concentration. […]
Pears denoted with a single number (e.g., “300”) received 1-MCP treatment with that concentration, in ppb, of 1-MCP in the atmosphere (e.g., 300 ppb) and were not exposed to exogenous ethylene. […] Reported quantity is “firmness” (“F”), the penetrometer force in kgf.

[5] = system: Packam's Pears; test: Firmness of Packam's pears by penetrometer after treatment, non-ambient storage and shelf life; details: South Africa, ambient 5 days, listed as 600
Description: as §1, §2, §3
In addition, samples of pears (from the same orchards from which pears treated with 1-MCP alone or 1-MCP and ethylene were harvested) were put into an airtight container for 24 hours at the temperature as the treated pears in order to reproduce the same environmental conditions. Then they were stored in the same rooms or in separated rooms in the same conditions of RA and CA as the treated pears. […]
Pears denoted with a single number (e.g., “300”) received 1-MCP treatment with that concentration, in ppb, of 1-MCP in the atmosphere (e.g., 300 ppb) and were not exposed to exogenous ethylene. […] Reported quantity is “firmness” (“F”), the penetrometer force in kgf. […]

[6] = system: Conference Pears; test: Firmness of Conference pears by penetrometer after treatment, non-ambient storage and shelf life; set-up: key to SW France F (firmness) / Italy F (firmness) / Average F (firmness): penetrometer force in kgf (8 mm probe); details: for ES A F (firmness): farm ES A; for ES B F (firmness): farm ES B; for IT F (firmness): farm IT; for firmness: Example 9, CA 6 months; for Italy F (firmness) / firmness: Italy; for Orchard #1 F (firmness) / Orchard #2 F (firmness) / Orchard #3 F (firmness): Example 11, Spain, RA 3 months
Description: as §1, §2, §3
In addition, samples of pears (from the same orchards from which pears treated with 1-MCP alone or 1-MCP and ethylene were harvested) were put into an airtight container for 24 hours at the temperature as the treated pears in order to reproduce the same environmental conditions. Then they were stored in the same rooms or in separated rooms in the same conditions of RA and CA as the treated pears. These pears received no exposure to 1-MCP, exogenous ethylene, or any combination thereof, and they are labeled “control” below.
Length of non-ambient storage at present commercial temperature and storage regime was generally of 2-4 months in RA and 6 months in CA, unless otherwise specified, according to normal commercial practice.
All pears received the same progression of non-ambient storage followed by exposure to ambient conditions (“shelf life”).
Pears denoted with a single number (e.g., “300”) received 1-MCP treatment with that concentration, in ppb, of 1-MCP in the atmosphere (e.g., 300 ppb) and were not exposed to exogenous ethylene. Pears denoted with two numbers (e.g. “300+600”) were treated with both that concentration in ppb of 1-MCP and that concentration in ppb of ethylene (e.g., 300 ppb of 1-MCP and 600 ppb of ethylene). The firmness of pears was tested using commercial penetrometers with test probe of 8 mm diameter. Reported quantity is “firmness” (“F”), the penetrometer force in kgf.

[7] = Example 3, RA 3 months, ambient 5 to 8 days
[8] = Example 4, CA 6 months, ambient 5 to 8 days
[9] = Example 5, RA 3 months, ambient 5-8 days
[10] = Example 6, CA 6 months, ambient 5-8 days
[11] = Example 7, RA 4 months, SW France, 13 ambient days
[12] = Example 8, CA 6 months, ambient 13 days, SW France

## CC1=CC1 [Sample 1-MCP, 1-MCP]
[1]; Example 6, CA 6 months, on average
  color rating (in words): undesirably too green color rating
[2]; Example 7, RA 4 months
  percentage of disorders (in words): lower percentage of disorders than the control pears
[2]; Example 8, CA 6 months, ambient 13 days
  diseased fruits (in words): fewer diseased fruits that the control sample
[2]; Examples 7, 8, and 9
  resistance to deterioration (in words): showed resistance to deterioration
[3]
  pears with scald (in words): fewer pears with scald than the control group
[4]
  firmness (in words): undesirably high

## CC1=CC1 [600(C), 1-MCP]
[5]; RA for 8 weeks
  8 weeks F (firmness): 6.5 kgf
[5]; RA for 12 weeks
  12 weeks F (firmness): 6.3 kgf
[6]; [7]
  AV F (firmness), average of the results from the seven farms: 5.7 kgf
  ES A F (firmness): 6.3 kgf
  ES B F (firmness): 6.3 kgf
  IT F (firmness): 5.7 kgf
[6]; Example 3, RA 3 months, ambient 5 to 8 days, farm FR A
  FR A F (firmness): 5.4 kgf
[6]; Example 3, RA 3 months, ambient 5 to 8 days, farm FR B
  FR B F (firmness): 5.2 kgf
[6]; Example 3, RA 3 months, ambient 5 to 8 days, farm NL A
  NL A F (firmness): 5.3 kgf
[6]; Example 3, RA 3 months, ambient 5 to 8 days, farm NL B
  NL B F (firmness): 5.6 kgf
[6]; [8]
  Av F (firmness), average of the results from the six farms: 5.4 kgf
  ES A F (firmness): 6.1 kgf
  ES B F (firmness): 5.6 kgf
  IT F (firmness): 4.9 kgf
[6]; Example 4, CA 6 months, ambient 5 to 8 days, farm FR
  FR F (firmness): 5.1 kgf
[6]; Example 4, CA 6 months, ambient 5 to 8 days, farm NL A
  NL A F (firmness): 5.1 kgf
[6]; Example 4, CA 6 months, ambient 5 to 8 days, farm NL B
  NL B F (firmness): 5.7 kgf
[6]; [9]
  Italy F (firmness): 5.7
  SW France F (firmness): 5.2
[6]; [10]
  Italy F (firmness): 4.9
  SW France F (firmness): 5.1
[6]; Example 6, CA 6 months, ambient 5-8 days, average of SW France and Italy
  Average F (firmness): 5.0
[6]; 0 ambient days
  firmness: 6.8 kgf
[6]; 7 ambient days
  firmness: 4.9 kgf
[6]; Example 10, RA 3 months, ambient 5 days
  Average F (firmness), average of the two orchards: 5.58 kgf
[6]; Example 10, RA 3 months, ambient 5 days, NL A
  NL A F (firmness): 5.65 kgf
[6]; Example 10, RA 3 months, ambient 5 days, NL B
  NL B F (firmness): 5.52 kgf
[6]; 0 days ambient
  Orchard #1 F (firmness): 5.95 kgf
  Orchard #2 F (firmness): 6.07 kgf
  Orchard #3 F (firmness): 6.46 kgf
[6]; 7 days ambient
  Orchard #1 F (firmness): 5.95 kgf
  Orchard #2 F (firmness): 6.03 kgf
  Orchard #3 F (firmness): 6.30 kgf
[6]; 12 days ambient
  Orchard #1 F (firmness): 5.75 kgf
  Orchard #2 F (firmness): 6.17 kgf
  Orchard #3 F (firmness): 6.58 kgf
[1]; Example 5, RA 3 months
  Italy color: 2.1
  SW France color: 2.95
[1]; Example 6, CA 6 months
  Italy color: 3.4
  SW France color: 2.65
[1]; Example 6, CA 6 months, average of SW France and Italy, scale 0 (green) to 5 (yellow)
  Average color: 3.0
[2]; Example 7, RA 4 months, Loire, France, 11 ambient days
  percentage of pears having internal browning (I.B.): 0 percentage
[2]; Example 7, RA 4 months, Loire, France, 13 ambient days
  percentage of pears having internal browning (I.B.): 0 percentage
[2]; Example 7, RA 4 months, Loire, France, 15 ambient days
  percentage of pears having internal browning (I.B.): 0 percentage
[2]; [11]
  percentage of pears having bruising: 0 percentage
  percentage of pears having internal browning (I.B.): 0 percentage
  percentage of pears having rot: 0 percentage
[2]; [12]
  percent disordered fruit: I.B.: 30%
  percent disordered fruit: rot: 13%
[3]; 0 ambient days
  percent with scald: 0%
[3]; 7 ambient days
  percent with scald: 1%
